According to EP0081924A1, “Topical compostions for lowering intraocular pressure” (ALCON LABORATORIES, INC., priority 1981, dated 1983):
Where a name gives a salt, the structure may show the parent alone. Read-outs that look alike come from different tables or passages of the source.

Legend:
Intraocular Pressure [1] = assay: Normal Rabbit Model, IOP lowering after topical administration; format: in vivo, New Zealand albino rabbits; conditions: Oryctolagus cuniculus, read-out: (B) 50uL 1% topical Normal Rabbit %IOP
Procedure: To determine the IOP reduction efficacy of the anti-glaucoma drugs of the invention in normal albino rabbits the following was done.
New Zealand albino rabbits (12) were acclimatized in restraining boxes for thirty minutes. Alcaine/ saline (1:5) was applied to the rabbit eyes and baseline IOP in mm Hg pressure were measured using an Alcon Laboratory Applanation Phneumatonograph. Then thirty minutes later, the coded test substance versus a coded saline control was administered as a 50 ul drop to one eye, six animals in each group. The treatment effects were measured as a function of time. Mean IOP and mean change in IOP for each hourly reading was recorded.
The effect cited is a peak percentage effect versus the external control test group.

Intraocular Pressure [2] = assay: Rhesus Monkey - Laser Model, IOP lowering after topical administration; format: in vivo, Rhesus monkeys; conditions: laser-induced ocular hypertension, peak effect, percentage change in the hypertensioned eye versus the same eye at the same hour the previous day
Procedure: A. Rhesus Monkey - Laser Model
Ocular hypertension was produced in adult Rhesus monkeys (4) via an argon laser photocoagulation of trabecular meshwork in the eye. The treated eye (only one is lasered) was allowed to heal and the IOP stabilized after about six weeks. Tests were performed by topical administration of one drop of a 0.5% solution of-the test agent to the Ketamine anesthetized Rhesus monkey's eye. The IOP charge was recorded by an Alcon Applanation Phneumatonograph. The peak effect was recorded as a percentage change in the hypertensioned eye versus the IOP value of the same eye recorded at the same hour the previous day.

[3] = 50uL 1% topical to one eye, peak percentage effect versus the external (saline) control group

## CN(C)c1cc(Cl)c(N=C2NCCN2)c(Cl)c1 [2,6-Dichloro-N^1-(2-imidazolidinylidene)-N^4, N^4-dimethyl-1,4-benzenediamine Dihydrochloride]
Intraocular Pressure [1]; topical
  change in vivo at 1 %: -10.2%

## N#Cc1cc(Cl)c(N=C2NCCN2)c(Cl)c1 [4-Cyano-2,6-dichloro-N-(2-imidazolidinylidene)-benzamine Hydrochloride]
Intraocular Pressure [1]; [3]
  change in vivo at 1 %: -2.3%

## O=CNc1cc(Cl)c(N=C2NCCN2)c(Cl)c1 [N-[3,5-Dichloro-4-(2-imidazolidinylideneamino) -phenyl]-formamide Free Base]
Intraocular Pressure [2]
  (A) 50uL 0.5% topical Laser-Monkey %IOP: -26.0%
Intraocular Pressure [1]; [3]
  change in vivo at 1 %: -15.6%

## Cl.Cl.Nc1cc(Cl)c(N=C2NCCN2)c(Cl)c1 [2,6-Dichloro-N^1-(2-imidazolidinylidene)-1,4-benzenediamine Dihydrochloride]
Intraocular Pressure [2]
  (A) 50uL 0.5% topical Laser-Monkey %IOP: -21.0%
Intraocular Pressure [1]; [3]
  change in vivo at 1 %: -1.3%

## O=C(O)c1cc(Cl)c(N=C2NCCN2)c(Cl)c1 [3,5-Dichloro-4-(2-imidazolidinylideneamino)-benzoic acid]
Intraocular Pressure [1]; [3]
  change in vivo at 1 %: -4.5%

## Nc1ccc(Cl)c(N=C2NCCN2)c1Cl [2,6-Dichloro-N^1-(2-imidazolidinylidene)-1,3-benzenediamine hydrochloride]
Intraocular Pressure [1]; topical
  change in vivo at 1 %: 0%

## CCOC(=O)c1cc(Cl)c(N=C2NCCN2)c(Cl)c1 [3,5-Dichloro-4-(2-imidazolidinylideneamino)-benzoic acid ethyl ester]
Intraocular Pressure [1]; [3]
  change in vivo at 1 %: -5.6%

## Clc1cccc(Cl)c1N=C1NCCN1 [2,6-Dichloro-N-2-imidazolidinylidene-benezamine, reference compound]
Intraocular Pressure [2]
  (A) 50uL 0.5% topical Laser-Monkey %IOP: -32.0%
Intraocular Pressure [1]; [3]
  change in vivo at 1 %: -13.9%

## Cl.Oc1cc(Cl)c(N=C2NCCN2)c(Cl)c1 [3,5-Dichloro-4-(2-imidazolidinylideneamino)-phenol Hydrochloride]
Intraocular Pressure [2]
  (A) 50uL 0.5% topical Laser-Monkey %IOP: -23.0%
Intraocular Pressure [1]; topical
  change in vivo at 1 %: -7.4%

## OCc1cc(Cl)c(N=C2NCCN2)c(Cl)c1 [3.5-Dichloro-4-(2-imidazolidinylideneamino)-benzenemethanol]
Intraocular Pressure [2]
  (A) 50uL 0.5% topical Laser-Monkey %IOP: -17%
Intraocular Pressure [1]; [3]
  change in vivo at 1 %: 0%

## CC(=O)Nc1cc(Cl)c(N=C2NCCN2)c(Cl)c1.Cl [N-[3,5-Dichloro-4-(2-imidazolidinylideneamino)-phenyl]-acetamide Hydrochloride]
Intraocular Pressure [2]
  (A) 50uL 0.5% topical Laser-Monkey %IOP: -4.0%
Intraocular Pressure [1]; [3]
  change in vivo at 1 %: -19%
